Measured values published in patent EP0371732A1, “Dopamine-beta-hydroxylase inhibitors” (SMITHKLINE BEECHAM CORPORATION, priority 1988, dated 1990).

Experiments:
[1] = system: spontaneously hypertensive rats; test: mean arterial blood pressure in spontaneously hypertensive rats, indwelling cannulae in the tail arteries; assay type: in vivo; details: 50 mg/kg intraperitoneally, compared to vehicle-treated controls
Procedure: Further, spontaneously hypertensive rats were treated with 1-(2-pyrrylmethyl)-1,3-dihydro-2H-imidazole-2-thione at a dose of 50 mg/kg intraperitoneally, and mean arterial blood pressure was monitored for 250 minutes using indwelling cannulae in the tail arteries. […] The maximal blood pressure reduction was approximately 35-40 mmHg.

[2] = Teresawa et al., Japan. Cir. J. 35, 339 (1971); cited from earlier work
[3] = biological target: T1, DBH (Homo sapiens, UniProt P09172); details: reported by Runti et al.; cited from earlier work
T1 sequence (P09172 1-617): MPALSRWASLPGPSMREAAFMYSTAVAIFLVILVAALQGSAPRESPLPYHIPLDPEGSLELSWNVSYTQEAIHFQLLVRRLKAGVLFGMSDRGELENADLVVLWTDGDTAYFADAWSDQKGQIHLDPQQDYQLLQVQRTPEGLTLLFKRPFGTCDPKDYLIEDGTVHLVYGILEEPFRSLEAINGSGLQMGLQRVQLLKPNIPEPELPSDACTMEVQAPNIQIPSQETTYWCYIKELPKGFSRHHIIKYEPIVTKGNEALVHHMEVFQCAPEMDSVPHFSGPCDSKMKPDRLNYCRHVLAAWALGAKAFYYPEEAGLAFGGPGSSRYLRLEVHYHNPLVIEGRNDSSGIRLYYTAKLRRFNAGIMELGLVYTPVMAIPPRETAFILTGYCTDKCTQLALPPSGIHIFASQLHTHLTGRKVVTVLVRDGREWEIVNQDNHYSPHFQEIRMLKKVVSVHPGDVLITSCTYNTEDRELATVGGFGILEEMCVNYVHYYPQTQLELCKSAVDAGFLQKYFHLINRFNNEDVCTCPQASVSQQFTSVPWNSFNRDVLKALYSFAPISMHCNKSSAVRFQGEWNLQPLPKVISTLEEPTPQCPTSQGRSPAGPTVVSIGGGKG

S=c1[nH]ccn1Cc1ccc[nH]1 [1-(2-Pyrrylmethyl)-1,3-dihydro-2H-imidazole-2-thione]
time to significant blood pressure reductions following treatment [1]: ≤ 30 min | maximal blood pressure reduction ([1]; monitored for 250 minutes, lowest blood pressures when monitoring was discontinued): 35-40 mmHg

CCCCc1ccc(C(=O)O)nc1 [Fusaric acid]
toxic effect [2]: hepatotoxic

phenylpicolinic acid
inhibitory activity relative to fusaric acid [3]: twice the inhibitory activity of fusaric acid
